In brackets after ≈: the same amount, converted by molar mass. Where two headings read alike, the source gives them in different places. Numbered stars: 1 amine (or outer) side, 2 acyl side, 3 side chain; on linkers, the order of the positions; unused ones are H or OH. Square brackets hold non-standard residues; d marks the D form. Peptide text beside a SMILES is read from it. X10 = Cc1cccc(/C=C/C[C@@H](C)[C@@H](O)[C@H](C(=O)[*:2])N(C)[*:1])n1; X33 = C[C@H](CCN1CCC(F)(CO)CC1)[C@@H](O)[C@H](C(=O)[*:2])N(C)[*:1]; X20 = C[C@H](CCN1CCC(F)(F)CC1)[C@@H](O)[C@H](C(=O)[*:2])N(C)[*:1]; X1 = Cc1cccc(CCC[C@@H](C)[C@@H](O)[C@H](C(=O)[*:2])N(C)[*:1])n1; X27 = C[C@H](CCN(C)c1ccccn1)[C@@H](O)[C@H](C(=O)[*:2])N(C)[*:1]; X8 = C[C@H](CCN1CCC[C@H]1CO)[C@@H](O)[C@H](C(=O)[*:2])N(C)[*:1]; X11 = C[C@H](CCN(C)CCC#N)[C@@H](O)[C@H](C(=O)[*:2])N(C)[*:1]; d(aThr) = C[C@@H](O)[C@@H](N)C(=O)O; NMeL = CN[C@@H](CC(C)C)C(=O)O; dNMeL = CN[C@H](CC(C)C)C(=O)O; dNMeV = CN[C@@H](C(=O)O)C(C)C; Hiv = CC(C)[C@H](O)C(=O)O; dAbu = CC[C@@H](N)C(=O)O; Sar = CNCC(=O)O

For data set [1], the target named is T1, cyclophilin A (Cyp A) (Homo sapiens, UniProt P62937).
T1 construct: purchased Sigma C3805
As to the kind of experiment: Protease-free PPIase assay, cyclophilin A. It counts as biochemical. On the procedure: (§1) The protease-free PPIase assay measures the rate of cis to trans conversion of a peptide substrate catalyzed by the enzymes cyclophilin A and cyclophilin D. Addition of a cyclophilin inhibitor (e.g., a test compound) slows the catalyzed rate and a Ki value is obtained. […] 35 mM HEPES pH 7.8, filtered through a 0.2 μm filter. 50 μM DTT was added prior to use each day and then the buffer was stored on ice. Human recombinant cyclophilin A (Cyp A) (Sigma C3805) enzyme was diluted to 1 μM with enzyme dilution buffer (20 mM HEPES pH 7.8, 40% glycerol, 50 μM DTT and 1 μM BSA) and stored at -20° C. Succinimide-[…]) (from Bachem AG, L-1400), 20 mg/ml prepared in 0.5 M LiCl in trifluoroethanol. All readings were taken with an Agilent 8453 Spectrophotometer which consists of a cuvette holder, stirrer and chiller to maintain a stirred cuvette temperature of 10.0±0.1° C. The temperature is monitored by the use of temperature probe. […] The inhibitor was diluted in 100% DMSO, and then added to the assay to a maximum final concentration of 0.5% DMSO in the assay. A blank spectrum was obtained, then 3 μL of enzyme was added (2 nM final concentration) and then 3 μL substrate (60 μM final concentration) added. The absorbance was measured at 330 nm for 300 s or 500 s for blank runs (NOTE: the substrate must be added in one quick injection and the measurements started immediately to minimize mixing errors). A first order rate equation was fitted to the absorbance data, for each concentration of inhibitor, to obtain the rate constant (the first 10 to 15 seconds were excluded as mixing causes errors in this portion of curve). The catalytic rate was calculated from the enzymatic rate constant minus the background rate constant. An exponential curve was generated using the catalytic rate constants versus the inhibitor concentration to obtain the Ki value for the inhibitor. The Ki value is indicative of the binding affinity between the test compound and cyclophilin A or cyclophilin D.

The target of data set [2] is cyclophilin D (Cyp D) (Homo sapiens, UniProt P30405). As to the kind of experiment: Protease-free PPIase assay, cyclophilin D. It counts as biochemical. Here is the method:
as §1, with “ice.” for “ice. Human recombinant cyclophilin A (Cyp A) (Sigma C3805) enzyme was diluted to 1 μM with enzyme dilution buffer (20 mM HEPES pH 7.8, 40% glycerol, 50 μM DTT and 1 μM BSA) and stored at -20° C.”

A short description of data set [3]: Water solubility assay (pH 7.8 buffer). It counts as physicochemical. On the procedure:
***Water Solubility Assay (Measured in pH 7.8 Buffer)
The onset of precipitation, if it occurred, was detected by an increase in absorbance at 650 nm.
Assay Buffer: 35 mM HEPES pH 7.8
Stock solutions of Control and Test Compounds: 10 mM in 100% DMSO
10 mM stock solutions of control and test compounds were prepared in 100% DMSO. A series of dilutions were prepared from the stock in DMSO so that the final concentrations in the assay were 0, 3.33, 10, 25, 50, 75 and 100 μM and DMSO was limited to 1%.
Assay buffer (247.5 μl) was placed into flat bottomed transparent 96-well plate. For blank samples DMSO (2.5 μl) was added. For test and control samples 2.5 μl of the appropriate DMSO dilution stocks were added to the appropriate well. All test and control compounds were performed in triplicate.
The plates were sealed with adhesive plate seal and shaken at 250 rpm at 25° C. for 18 h on a plate shaker.
After incubation the plate seals were taken off and any bubbles observed in wells removed. The plates were read on a SpectraMaxM5 with a 5 s pre-shake at 650 nm.
Data files were transferred to the appropriate worksheet and the solubility range of the compounds was calculated from the data.
The values shown in the tables indicate the concentration in μM (micromolar) at which the compound remains in solution.

T1 sequence (P62937 whole entry): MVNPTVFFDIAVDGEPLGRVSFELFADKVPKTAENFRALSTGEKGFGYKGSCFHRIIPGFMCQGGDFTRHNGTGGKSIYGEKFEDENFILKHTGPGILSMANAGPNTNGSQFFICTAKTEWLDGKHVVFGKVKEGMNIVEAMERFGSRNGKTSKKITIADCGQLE
cyclophilin D (Cyp D), sequence (P30405 30-207): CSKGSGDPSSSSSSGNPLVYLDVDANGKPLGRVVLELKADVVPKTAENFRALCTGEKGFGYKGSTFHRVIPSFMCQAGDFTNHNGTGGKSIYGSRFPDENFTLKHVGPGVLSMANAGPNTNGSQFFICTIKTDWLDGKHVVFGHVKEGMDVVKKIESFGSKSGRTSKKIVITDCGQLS

With `CC[C@H]1NC(=O)[C@@H]([C@H](O)[C@H](C)C/C=C/c2cccc(C)n2)N(C)C(=O)[C@@H](C(C)C)N(C)C(=O)[C@@H](CC(C)C)NC(=O)[C@@H](CC(C)C)N(C)C(=O)[C@H](C(C)C)OC(=O)[C@@H](C)NC(=O)[C@@H](CC(C)C)N(C)C(=O)[C@@H](CC(C)C)NC(=O)[C@H](CC(C)C)N(C)C(=O)CN(C)C1=O` [Example 19, cyclo-[(3R,4R,5S)-4-(hydroxy)-3-methyl-5-(methylamino)-1-(6-methyl-pyridin-2-yl)-hept-1-enoic acid-Abu-Sar-MeLeu-Leu-MeLeu-Ala-D-Hiv-MeLeu-Leu-MeVal]] (cyclo([Hiv][dNMeL][dL][dNMeV][X10][dAbu][Sar][NMeL][dL][dNMeL][dA])), the Ki in data set [1] and in data set [2] was 0.001 to 0.025 µM each time. The solubility at 18 h in data set [3] (pH 7.8) lay in the range of 10 to 25 µM (≈ 13.1 to 32.7 µg/mL).

In the case of `CC[C@H]1NC(=O)[C@@H]([C@H](O)[C@H](C)CCCc2cccc(C)n2)N(C)C(=O)[C@@H](C(C)C)N(C)C(=O)[C@@H](CC(C)C)NC(=O)[C@@H](CC(C)C)N(C)C(=O)[C@H](C(C)C)OC(=O)[C@@H](C)NC(=O)[C@@H](CC(C)C)N(C)C(=O)[C@@H](CC(C)C)NC(=O)[C@H](CC(C)C)N(C)C(=O)CN(C)C1=O` [Example 21, cyclo-[(3R,4R,5S)-4-(hydroxy)-3-methyl-5-(methylamino)-1-(6-methyl-pyridin-2-yl)-heptanoic acid-Abu-Sar-MeLeu-Leu-MeLeu-Ala-D-Hiv-MeLeu-Leu-MeVal]] (cyclo([Hiv][dNMeL][dL][dNMeV][X1][dAbu][Sar][NMeL][dL][dNMeL][dA])), the Ki in data set [1] and in data set [2] was 0.001 to 0.025 µM each time. The molecule also yielded a solubility at 18 h in data set [3] (pH 7.8) of 10 to 25 µM (≈ 13.1 to 32.8 µg/mL).

`CC(C)C[C@@H]1C(=O)N[C@H](CC(C)C)C(=O)N(C)[C@H](C(C)C)C(=O)N(C)[C@H]([C@H](O)[C@H](C)CCN2CCC(F)(F)CC2)C(=O)N[C@H]([C@@H](C)O)C(=O)N(C)CC(=O)N(C)[C@@H](CC(C)C)C(=O)N[C@H](CC(C)C)C(=O)N(C)[C@H](CC(C)C)C(=O)N[C@H](C)C(=O)O[C@@H](C(C)C)C(=O)N1C` [Example 24, cyclo-[(3R,4R,5S)-4-(hydroxy)-3-methyl-5-(methylamino)-1-N-(4,4-difluoro-piperidine)-hexanoic acid-Thr-Sar-MeLeu-Leu-MeLeu-Ala-D-Hiv-MeLeu-Leu-MeVal]] (cyclo([Hiv][dNMeL][dL][dNMeV][X20][d(aThr)][Sar][NMeL][dL][dNMeL][dA])): the inhibition constant Ki in data set [1] and in data set [2] was 0.001 to 0.025 µM throughout. In data set [3] (pH 7.8), this molecule gave a solubility at 18 h of 25 to 50 µM (≈ 33.5 to 67 µg/mL).

As for `CC(C)C[C@@H]1C(=O)N[C@H](CC(C)C)C(=O)N(C)[C@H](C(C)C)C(=O)N(C)[C@H]([C@H](O)[C@H](C)CCN2CCC(F)(CO)CC2)C(=O)N[C@H]([C@@H](C)O)C(=O)N(C)CC(=O)N(C)[C@@H](CC(C)C)C(=O)N[C@H](CC(C)C)C(=O)N(C)[C@H](CC(C)C)C(=O)N[C@H](C)C(=O)O[C@@H](C(C)C)C(=O)N1C` [Example 25, cyclo-[(3R,4R,5S)-4-(hydroxy)-3-methyl-5-(methylamino)-1-N-((4-fluoro-piperidin-4-yl)-methanol)-hexanoic acid-Thr-Sar-MeLeu-Leu-MeLeu-Ala-D-Hiv-MeLeu-Leu-MeVal]] (cyclo([Hiv][dNMeL][dL][dNMeV][X33][d(aThr)][Sar][NMeL][dL][dNMeL][dA])), the inhibition constant Ki lay in the range of 0.1 to 0.3 µM in data set [1] (protease-free PPIase assay, class symbols, read-out: CypA Ki) and 0.1 to 0.3 µM in data set [2] (protease-free PPIase assay, class symbols, read-out: CypD Ki). Moreover, the solubility at 18 h in data set [3] (35 mM HEPES buffer, 35 mM HEPES pH 7.8, 1% DMSO, 25° C., 18 h, concentration at which compound remains in solution, read-out: Solubility) was above 100 µM.

Consider `CC(C)C[C@@H]1C(=O)N[C@H](CC(C)C)C(=O)N(C)[C@H](C(C)C)C(=O)N(C)[C@H]([C@H](O)[C@H](C)CCN2CCC[C@H]2CO)C(=O)N[C@H]([C@@H](C)O)C(=O)N(C)CC(=O)N(C)[C@@H](CC(C)C)C(=O)N[C@H](CC(C)C)C(=O)N(C)[C@H](CC(C)C)C(=O)N[C@H](C)C(=O)O[C@@H](C(C)C)C(=O)N1C` [Example 26, cyclo-[(3R,4R,5S)-4-(hydroxy)-3-methyl-5-(methylamino)-1-N—((S)-1-Pyrrolidin-2-yl-methanol)-hexanoic acid-Thr-Sar-MeLeu-Leu-MeLeu-Ala-D-Hiv-MeLeu-Leu-MeVal]] (cyclo([Hiv][dNMeL][dL][dNMeV][X8][d(aThr)][Sar][NMeL][dL][dNMeL][dA])), for which the inhibition constant (Ki) fell in the range of 0.1 to 0.3 µM in data set [1] and 0.025 to 0.1 µM in data set [2]. The molecule further came in with a solubility at 18 h in data set [3] (pH 7.8) above 100 µM.

Turning to `CC(C)C[C@@H]1C(=O)N[C@H](CC(C)C)C(=O)N(C)[C@H](C(C)C)C(=O)N(C)[C@H]([C@H](O)[C@H](C)CCN(C)CCC#N)C(=O)N[C@H]([C@@H](C)O)C(=O)N(C)CC(=O)N(C)[C@@H](CC(C)C)C(=O)N[C@H](CC(C)C)C(=O)N(C)[C@H](CC(C)C)C(=O)N[C@H](C)C(=O)O[C@@H](C(C)C)C(=O)N1C` [Example 27, cyclo-[(3R,4R,5S)-4-(hydroxy)-3-methyl-5-(methylamino)-1-N-(3-methylamino-propionitrile)-hexanoic acid-Thr-Sar-MeLeu-Leu-MeLeu-Ala-D-Hiv-MeLeu-Leu-MeVal]] (cyclo([Hiv][dNMeL][dL][dNMeV][X11][d(aThr)][Sar][NMeL][dL][dNMeL][dA])), the Ki in data set [1] was 0.025 to 0.1 µM; in data set [2] it was 0.001 to 0.025 µM. The same molecule gave a solubility at 18 h in data set [3] (pH 7.8) above 100 µM.

Turning to `CC(C)C[C@@H]1C(=O)N[C@H](CC(C)C)C(=O)N(C)[C@H](C(C)C)C(=O)N(C)[C@H]([C@H](O)[C@H](C)CCN(C)c2ccccn2)C(=O)N[C@H]([C@@H](C)O)C(=O)N(C)CC(=O)N(C)[C@@H](CC(C)C)C(=O)N[C@H](CC(C)C)C(=O)N(C)[C@H](CC(C)C)C(=O)N[C@H](C)C(=O)O[C@@H](C(C)C)C(=O)N1C` [Example 28, cyclo-[(3R,4R,5S)-4-(hydroxy)-3-methyl-5-(methylamino)-1-N-(methyl-pyridin-2-yl-amine)-hexanoic acid-Thr-Sar-MeLeu-Leu-MeLeu-Ala-D-Hiv-MeLeu-Leu-MeVal]] (cyclo([Hiv][dNMeL][dL][dNMeV][X27][d(aThr)][Sar][NMeL][dL][dNMeL][dA])), the Ki in data set [1] and in data set [2] was 0.001 to 0.025 µM each time. In addition, the solubility at 18 h in data set [3] (pH 7.8) was 25 to 50 µM (≈ 33.2 to 66.4 µg/mL).

These data come from patent US9382295B2, “Cyclic depsipeptide compounds and their uses” (Cypralis Limited, priority 2012, dated 2016).
